What was measured:
[1] = tested on: central benzodiazepine receptors; test: Central benzodiazepine receptor binding (test of Speth et al.); details: 1000 nM of the compound
Outline: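 Radioligand binding by the Speth et al. method. Specific binding is total minus nonspecific binding, the latter measured with excess unlabelled ligand. Compounds screened at 1.0E-09, 1.0E-07 and 1.0E-05 M in single determination; values given as percent inhibition at 1000 nM compound.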

[2] = biological target: T1, α2 subtype containing GABA-A receptors (Homo sapiens, UniProt P18507+P47869); test: Two-electrode voltage clamp electrophysiology in Xenopus oocytes, potentiation of GABA EC20 response, α2; format: cell-based; details: 100 nM compound; for activation at 0.1 µM: read-out: Percentage of potentiation alpha2
T1 construct: expressed in transfected cells; host or cells: Xenopus laevis oocytes, cRNA injected
T1 sequence (P47869 29-451): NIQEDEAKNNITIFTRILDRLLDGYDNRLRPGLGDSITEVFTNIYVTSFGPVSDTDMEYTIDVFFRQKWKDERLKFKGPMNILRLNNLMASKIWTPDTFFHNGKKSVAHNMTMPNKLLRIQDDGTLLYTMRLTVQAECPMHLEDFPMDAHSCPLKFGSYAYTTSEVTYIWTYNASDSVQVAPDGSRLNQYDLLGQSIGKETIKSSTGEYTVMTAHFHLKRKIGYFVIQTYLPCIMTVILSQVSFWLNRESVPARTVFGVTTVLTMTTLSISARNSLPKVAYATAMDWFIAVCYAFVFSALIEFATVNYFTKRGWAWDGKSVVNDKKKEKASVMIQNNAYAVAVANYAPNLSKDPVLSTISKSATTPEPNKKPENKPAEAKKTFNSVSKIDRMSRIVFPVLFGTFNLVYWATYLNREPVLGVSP
T1 sequence (P28472 26-473 partner): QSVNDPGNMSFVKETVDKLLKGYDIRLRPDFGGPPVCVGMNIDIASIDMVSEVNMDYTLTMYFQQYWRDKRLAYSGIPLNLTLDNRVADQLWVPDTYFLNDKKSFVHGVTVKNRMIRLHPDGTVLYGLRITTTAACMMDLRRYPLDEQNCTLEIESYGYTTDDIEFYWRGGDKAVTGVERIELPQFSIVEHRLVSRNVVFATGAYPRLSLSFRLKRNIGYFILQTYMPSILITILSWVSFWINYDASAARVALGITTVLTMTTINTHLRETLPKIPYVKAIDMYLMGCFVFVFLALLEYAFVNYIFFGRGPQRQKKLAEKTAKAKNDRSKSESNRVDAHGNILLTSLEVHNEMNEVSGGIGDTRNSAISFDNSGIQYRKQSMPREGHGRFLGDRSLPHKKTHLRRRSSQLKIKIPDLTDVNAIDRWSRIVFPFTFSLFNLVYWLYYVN
T1 sequence (P18507 40-475): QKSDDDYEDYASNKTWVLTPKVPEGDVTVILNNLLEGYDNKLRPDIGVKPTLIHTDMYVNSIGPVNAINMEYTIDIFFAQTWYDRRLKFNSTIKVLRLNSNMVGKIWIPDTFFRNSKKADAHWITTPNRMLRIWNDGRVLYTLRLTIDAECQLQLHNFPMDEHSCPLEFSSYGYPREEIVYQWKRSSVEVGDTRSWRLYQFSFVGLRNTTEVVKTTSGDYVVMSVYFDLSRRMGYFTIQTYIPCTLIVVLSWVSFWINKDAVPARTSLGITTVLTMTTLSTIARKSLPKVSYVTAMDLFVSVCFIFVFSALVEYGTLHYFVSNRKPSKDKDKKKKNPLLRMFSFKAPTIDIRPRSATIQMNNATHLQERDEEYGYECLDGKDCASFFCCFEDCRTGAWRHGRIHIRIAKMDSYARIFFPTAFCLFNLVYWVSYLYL
Outline: (§1)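 Potentiation of the GABA EC20 current by 100 nM compound is the read-out, recorded by two-electrode voltage clamp at −80 mV in oocytes carrying human α1, α2, α3 or α5 with β3 and γ2L. Baseline came from three 20-s applications of 60 μM GABA.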

[3] = biological target: T2, α3 subtype containing GABA-A receptors (Homo sapiens, UniProt P18507+P34903); test: Two-electrode voltage clamp electrophysiology in Xenopus oocytes, potentiation of GABA EC20 response, α3; format: cell-based; details: 100 nM compound; for activation at 0.1 µM: read-out: Percentage of potentiation alpha3
T2 construct: expressed in transfected cells; host or cells: Xenopus laevis oocytes, cRNA injected
T2 sequence (P34903 29-492): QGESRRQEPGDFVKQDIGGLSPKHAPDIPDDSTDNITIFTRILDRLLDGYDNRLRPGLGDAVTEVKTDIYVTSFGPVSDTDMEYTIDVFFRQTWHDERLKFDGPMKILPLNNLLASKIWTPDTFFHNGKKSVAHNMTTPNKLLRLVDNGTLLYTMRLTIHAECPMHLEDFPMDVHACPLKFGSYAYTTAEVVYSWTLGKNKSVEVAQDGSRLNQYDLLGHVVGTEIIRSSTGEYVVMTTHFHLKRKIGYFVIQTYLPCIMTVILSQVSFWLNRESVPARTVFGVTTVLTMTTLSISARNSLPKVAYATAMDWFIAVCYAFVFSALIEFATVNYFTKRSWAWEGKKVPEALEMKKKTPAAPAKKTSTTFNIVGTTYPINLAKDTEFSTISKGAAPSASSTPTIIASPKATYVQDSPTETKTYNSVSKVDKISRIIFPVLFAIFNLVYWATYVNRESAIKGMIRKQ
T2 sequence (P28472 26-473 partner): as the sequence (P28472 26-473 partner) above
T2 sequence (P18507 40-475): as the sequence (P18507 40-475) above
Protocol: (§2) Electrophysiology protocol: Oocytes were prepared from adult female Xenopus laevis frogs. cRNA encoding human α1, α2, α3, α5, β3 and γ2L GABAA receptor subunits was injected into the cytoplasm of stage 5 or 6 oocytes using the Robocyte Robot (Multi Channel Systems, Reutlingen, Germany). Two-electrode voltage clamp recordings were made in 96-well plates using the Robocyte Robot. Oocytes were impaled using recording heads with two glass electrodes containing 1.5 M potassium acetate and 0.5 M KCl and held at a membrane potential of −80 mV. Oocytes were continually perfused with a ND96 solution (96 mM NaCl, 2 mM KCl, 0.1 mM CaCl2, and 5 mM HEPES, pH 7.5) using a Gilson 222 XL Liquid Handler and Gilson Minipuls 3 Peristaltic Pump (Gilson Medical Electronics, Middleton, Wis., USA). The protocol consisted of three 20-s applications of GABA that gave a 20% of the maximum response (EC20: 60 μM) to allow for headroom to determine a baseline GABA response. To assess the potentiation, oocytes were first exposed to a single 1 μM chlordiazepoxide (CDP) as a potentiation standard. Oocytes with insufficient expression levels (currents below threshold) or insufficient γ2L subunit incorporation (judged by rapid desensitization upon GABA application, or by insufficient potentiation by CDP) were not included in analysis. Following this control application, a given oocyte was exposed to test compounds at 100 nM concentrations. Only one concentration of one compound was tested per oocyte. […] One skilled in the art will recognize that subtypes contribute to the effects of GABA-A modulators. Such that compounds favoring different subtypes can have different therapeutic effects. The magnitude of modulation, for example, partial modulators can influence the effects in vivo. “++” indicates a greater modulation that “+” so that at any given subtype “++” inducates a greater amount of modulation for that subtype. In some embodiments, modulation favoring alpha 1 relative to alpha2 and/or alpha 3 can have sedative hypnotic effects. In other embodiments, compounds with reduced selectivity of alpha 1 can express anxiolytic effects with less sedation. Compounds with selectivity for alpha 5 can have memory/cognition enhancing effects.

[4] = biological target: T3, α5 subtype containing GABA-A receptors (Homo sapiens, UniProt P18507+P31644); test: Two-electrode voltage clamp electrophysiology in Xenopus oocytes, potentiation of GABA EC20 response, α5; format: cell-based; details: 100 nM compound; for activation at 0.1 µM: read-out: Percentage of potentiation alpha5
T3 construct: expressed in transfected cells; host or cells: Xenopus laevis oocytes, cRNA injected
T3 sequence (P31644 32-462): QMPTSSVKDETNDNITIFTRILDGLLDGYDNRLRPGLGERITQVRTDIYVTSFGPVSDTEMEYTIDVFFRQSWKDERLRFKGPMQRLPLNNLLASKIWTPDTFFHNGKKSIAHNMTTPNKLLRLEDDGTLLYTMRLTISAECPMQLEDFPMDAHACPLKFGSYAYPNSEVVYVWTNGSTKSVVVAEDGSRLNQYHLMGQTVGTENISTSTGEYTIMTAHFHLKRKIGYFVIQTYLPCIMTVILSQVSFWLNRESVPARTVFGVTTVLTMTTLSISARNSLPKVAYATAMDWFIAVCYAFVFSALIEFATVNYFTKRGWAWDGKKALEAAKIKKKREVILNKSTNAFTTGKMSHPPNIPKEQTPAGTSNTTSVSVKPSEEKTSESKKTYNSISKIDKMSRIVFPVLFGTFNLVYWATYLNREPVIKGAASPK
T3 sequence (P28472 26-473 partner): as the sequence (P28472 26-473 partner) above
T3 sequence (P18507 40-475): as the sequence (P18507 40-475) above
Protocol: as §2

[5] = biological target: T4, α1 subtype containing GABA-A receptors (Homo sapiens, UniProt P14867+P18507); test: Two-electrode voltage clamp electrophysiology in Xenopus oocytes, potentiation of GABA EC20 response, α1; format: cell-based; details: 100 nM compound; for activation at 0.1 µM: read-out: Percentage of potentiation alpha1
T4 construct: expressed in transfected cells; host or cells: Xenopus laevis oocytes, cRNA injected
T4 sequence (P14867 28-456): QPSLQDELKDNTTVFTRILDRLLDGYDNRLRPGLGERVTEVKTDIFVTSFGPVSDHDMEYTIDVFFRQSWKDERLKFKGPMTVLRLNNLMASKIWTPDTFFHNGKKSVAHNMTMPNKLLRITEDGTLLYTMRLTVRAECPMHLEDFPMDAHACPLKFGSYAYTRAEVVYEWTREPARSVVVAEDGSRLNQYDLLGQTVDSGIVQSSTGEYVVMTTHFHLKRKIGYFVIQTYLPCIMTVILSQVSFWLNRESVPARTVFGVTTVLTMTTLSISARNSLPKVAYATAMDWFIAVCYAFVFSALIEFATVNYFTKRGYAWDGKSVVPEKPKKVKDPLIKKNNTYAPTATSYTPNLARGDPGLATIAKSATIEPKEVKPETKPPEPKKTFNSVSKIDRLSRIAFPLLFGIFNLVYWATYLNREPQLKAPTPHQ
T4 sequence (P28472 26-473 partner): as the sequence (P28472 26-473 partner) above
T4 sequence (P18507 40-475): as the sequence (P18507 40-475) above
Outline: as §1

SMILES	% Inhibition at 1000 nM for CBZD [1]	activation at 0.1 µM [2] [%]	activation at 0.1 µM [3] [%]	activation at 0.1 µM [4] [%]	activation at 0.1 µM [5] [%]	Percentage of potentiation alpha2 [2]	Percentage of potentiation alpha3 [3]	Percentage of potentiation alpha5 [4]	Percentage of potentiation alpha1 [5]
Cc1ccnc(NCc2c(-c3ccccc3)nc3ccc(Cl)cn23)n1 [Compound 158, (6-Chloro-2-phenyl-imidazo[1,2-a]pyridin-3-ylmethyl)-(4-methyl-pyrimidin-2-yl)-amine]	++ (percentage of inhibition of central BZD site binding is greater than 80% in the presence of 1000 nM of the compound)	10 to 50	10 to 50	-10 to 10	-10 to 10				
Clc1ccc(-c2nc3ccccn3c2Cn2nccn2)cc1 [Compound 39, 2-(4-Chloro-phenyl)-3-[1,2,3]triazol-2-ylmethyl-imidazo[1,2-a]pyridine]	++ (percentage of inhibition of central BZD site binding is greater than 80% in the presence of 1000 nM of the compound)	10 to 50	10 to 50	-10 to 10	10 to 50				
O=c1cc(Cl)n(Cc2c(-c3ccc(Cl)cc3)nc3ccccn23)c(=O)[nH]1 [Compound 128, 6-chloro-1-((2-(4-chlorophenyl)imidazo[1,2-a]pyridin-3-yl)methyl)pyrimidine-2,4(1H,3H)-dione]	++ (percentage of inhibition of central BZD site binding is greater than 80% in the presence of 1000 nM of the compound)	10 to 50	-10 to 10	10 to 50	-10 to 10				
O=C1C=C(N2CCC(O)C2)CN1Cc1c(-c2ccc(Cl)cc2)nc2ccccn12 (centres unmarked) [Compound 240, 1-((2-(4-chlorophenyl)imidazo[1,2-a]pyridin-3-yl)methyl)-4-(3-hydroxypyrrolidin-1-yl)-1H-pyrrol-2(5H)-one]	++ (percentage of inhibition of central BZD site binding is greater than 80% in the presence of 1000 nM of the compound)	10 to 50	-10 to 10	-10 to 10	≥ 50				
Fc1ccc2nc(-c3ccc(Cl)cc3)c(Cn3nnc4ccccc43)n2c1 [Compound 58, 1-((2-(4-chlorophenyl)-6-fluoroH-imidazo[1,2-a]pyridin-3-yl)methyl)-1H-benzo[d][1,2,3]triazole]	++ (percentage of inhibition of central BZD site binding is greater than 80% in the presence of 1000 nM of the compound)					+ (percentage of potentiation is greater than or equal to 10% but less than 50% in the presence of 100 nM of the compound)	0 (percentage of potentiation is between about 10% to about −10%)	0 (percentage of potentiation is between about 10% to about −10%)	+ (percentage of potentiation is greater than or equal to 10% but less than 50% in the presence of 100 nM of the compound)
CC(C)OC(=O)c1ncnn1Cc1c(-c2ccc(Cl)cc2)nc2ccc(Cl)cn12 [Compound 23, 2-[6-Chloro-2-(4-chloro-phenyl)-imidazo[1,2-a]pyridin-3-ylmethyl]-2H-[1,2,4]triazole-3-carboxylic acid isopropyl ester]	++ (percentage of inhibition of central BZD site binding is greater than 80% in the presence of 1000 nM of the compound)	10 to 50	10 to 50	-10 to 10	10 to 50				
Cc1ccc(-c2nc3ccc(C)cn3c2Cn2cnc3c(N(C)C)ncnc32)cc1 [Compound 17, N,N-Dimethyl-9-((6-methyl-2-p-tolylH-imidazo[1,2-a]pyridin-3-yl)methyl)-9H-purin-6-amine]	++ (percentage of inhibition of central BZD site binding is greater than 80% in the presence of 1000 nM of the compound)					+ (percentage of potentiation is greater than or equal to 10% but less than 50% in the presence of 100 nM of the compound)	0 (percentage of potentiation is between about 10% to about −10%)	0 (percentage of potentiation is between about 10% to about −10%)	+ (percentage of potentiation is greater than or equal to 10% but less than 50% in the presence of 100 nM of the compound)
CNc1ccn(Cc2c(-c3ccc(Cl)cc3)nc3ccccn23)c(=O)n1 [Compound 133, 1-((2-(4-chlorophenyl)imidazo[1,2-a]pyridin-3-yl)methyl)-4-(methylamino)pyrimidin-2(1H)-one]	++ (percentage of inhibition of central BZD site binding is greater than 80% in the presence of 1000 nM of the compound)	≥ 50	-10 to 10	-10 to 10	10 to 50				
COC(=O)c1ncnn1Cc1c(-c2ccc(Cl)cc2)nc2ccc(Cl)cn12 [Compound 21, Methyl 2-((6-chloro-2-(4-chlorophenyl)H-imidazo[1,2-a]pyridin-3-yl)methyl)-2H-1,2,4-triazole-3-carboxylate]	++ (percentage of inhibition of central BZD site binding is greater than 80% in the presence of 1000 nM of the compound)					+ (percentage of potentiation is greater than or equal to 10% but less than 50% in the presence of 100 nM of the compound)	+ (percentage of potentiation is greater than or equal to 10% but less than 50% in the presence of 100 nM of the compound)	0 (percentage of potentiation is between about 10% to about −10%)	+ (percentage of potentiation is greater than or equal to 10% but less than 50% in the presence of 100 nM of the compound)
Clc1ccc(-c2nc3ccccn3c2Cc2nnc(-c3ccccn3)[nH]2)cc1 [Compound 230, 2-(4-chlorophenyl)-3-((5-(pyridin-2-yl)-4H-1,2,4-triazol-3-yl)methyl)imidazo[1,2-a]pyridine]	++ (percentage of inhibition of central BZD site binding is greater than 80% in the presence of 1000 nM of the compound)	10 to 50	10 to 50	10 to 50	10 to 50				
O=c1n(Cc2c(-c3ccc(Cl)cc3)nc3ccccn23)nc2ccccn12 [Compound 119, 2-((2-(4-chlorophenyl)imidazo[1,2-a]pyridin-3-yl)methyl)-[1,2,4]triazolo[4,3-a]pyridin-3(2H)-one]	++ (percentage of inhibition of central BZD site binding is greater than 80% in the presence of 1000 nM of the compound)	10 to 50	-10 to 10	-10 to 10	-10 to 10				
Cc1ccc(-c2nc3ccc(C)cn3c2Cn2cnc3ncccc32)cc1 [Compound 15, 1-((6-Methyl-2-p-tolylH-imidazo[1,2-a]pyridin-3-yl)methyl)-1H-imidazo[4,5-b]pyridine]	++ (percentage of inhibition of central BZD site binding is greater than 80% in the presence of 1000 nM of the compound)					+ (percentage of potentiation is greater than or equal to 10% but less than 50% in the presence of 100 nM of the compound)	+ (percentage of potentiation is greater than or equal to 10% but less than 50% in the presence of 100 nM of the compound)	0 (percentage of potentiation is between about 10% to about −10%)	+ (percentage of potentiation is greater than or equal to 10% but less than 50% in the presence of 100 nM of the compound)
Cc1nnc(Cc2c(-c3ccccc3)nc3ccc(Cl)cn23)o1 [Compound 205, 2-((6-chloro-2-phenylimidazo[1,2-a]pyridin-3-yl)methyl)-5-methyl-1,3,4-oxadiazole]	++ (percentage of inhibition of central BZD site binding is greater than 80% in the presence of 1000 nM of the compound)	-10 to 10	-10 to 10	-10 to 10	-10 to 10				

From patent US8497278B2, “Imidazo[1,2-a]pyridine compounds” (priority 2008, dated 2013)
